From PMC10313921, “A living ex vivo platform for functional, personalized brain cancer diagnosis” (Cell Reports Medicine, 2023) come the findings set out here.

Assay [1] concerns PGBM patient tumor tissue (pediatric GBM). As to the kind of experiment: Drug screening of uncultured patient tumor tissue PGBM on OBSCs. It counts as cell-based, human. The conditions noted are these: for EC50 / EC90: Homo sapiens, PGBM on OBSCs; for EC50: dose required to kill 50% of the tumor; for EC90: dose required to kill 90% of the tumor; for DSS (drug sensitivity score): PGBM patient tissue, scale -100 to +100. The method, then:
(§1) Tumor cells were seeded onto OBSCs 2h after slicing as described above. One day after tumor seeding, six concentrations of each drug were diluted in the media underneath each culture insert, or XRad was applied using an X-Rad 320 Precision X-ray machine (n = 4 tumor foci per concentration; n ≥ 24 tumor foci per drug per cell line). Three days after treatment, the bioluminescence of live tumor cells was measured using an AMI optical imager (Spectral Instruments) and dose-response curves were generated. Tumor survival was normalized to day one tumor fluorescence and compared to an untreated control group.
To engraft onto OBSCs, the cryopreserved/thawed or fresh brain tumor tissue was filtered through a 100 μm cell strainer. Each 50 mg of tissue was transfected with 1mL mcherry-FLuc Lentivirus at 1.5e7 vg/ml with 1μL polybrene for 4h at 37°C. After incubation, the brain tumor tissue was washed with PBS three times to remove the residual virus and reconstituted in PBS with a final volume of 150 μL. Then the tissue solution was engrafted atop OBSCs at ∼0.5 mg tissue in 3 μL of PBS on each hemisphere of the slice. The OBSC engrafted with patient tumor tissue was incubated at 37°C with 5% CO2 and 95% humidity. The BSM was changed after 24h and subsequently every 3 days. Tumor treatment studies were executed as described above for tumor lines. The viability of the patient tissue was measured by an AMI optical imaging system with the addition of 1.5 mg/mL luciferin underneath the culture insert.
Several weighted parameters were factored into an overall drug sensitivity score.
(§2) For DSS parameters 1–6, therapeutic windows were calculated by comparing OBSC toxicity and tumor response at the doses where tumor kill passed through the DSS parameter (Table S1 and S3). For DSS parameter 7, the therapeutic window was calculated by comparing the slopes through the tumor EC50 and the OBSC tox EC50. For DSS parameter 8, the therapeutic window was calculated by comparing the areas under tumor kill and OBSC tox curves. Normalized therapeutic window ratios for DSS parameters 1–8 within each drug-tumor-OBSC interaction were calculated in the following manner: within each window, values ranged from +1 to −1, where values approaching +1 signify increasing tumor kill relative to normal tissue toxicity, and values approaching −1 indicate agents where tumors remained highly viable while toxicity to the normal OBSC tissue was elevated. DSS parameters 9–11 were determined based on the behavior of the tumor in response to the drug, as defined above.
All individually weighed parameters were added together to generate the DSS. Overall DSS from 0 to 100 signify increasing efficacy in tumor kill relative to OBSC toxicity, while scores from 0 to −100 describe scenarios in which tumors thrive more effectively than OBSCs for a given treatment. Dose-response values were calculated via linear interpolation of raw data, not from best-fit curve equations.

Assay [2] concerns MG-I patient tumor tissue (WHO I meningioma). Put plainly: Drug screening of uncultured patient tumor tissue MG-I on OBSCs. It counts as cell-based. The conditions noted are these: Homo sapiens, dose required to kill 90% of the tumor. The method, then:
as §1
(§3) To engraft onto OBSCs, the cryopreserved/thawed or fresh brain tumor tissue was filtered through a 100 μm cell strainer. […] The viability of the patient tissue was measured by an AMI optical imaging system with the addition of 1.5 mg/mL luciferin underneath the culture insert. […]
(§4) For DSS parameters 1–6, therapeutic windows were calculated by comparing OBSC toxicity and tumor response at the doses where tumor kill passed through the DSS parameter (Table S1 and S3). For DSS parameter 7, the therapeutic window was calculated by comparing the slopes through the tumor EC50 and the OBSC tox EC50. For DSS parameter 8, the therapeutic window was calculated by comparing the areas under tumor kill and OBSC tox curves. […]

The subject of assay [3] is SE-I patient tumor tissue (WHO I subependymoma). Put plainly: Drug screening of uncultured patient tumor tissue SE-I on OBSCs. The conditions noted are these: Homo sapiens; for EC90: dose required to kill 90% of the tumor. It counts as cell-based. The method, then: as §1
(§5) To engraft onto OBSCs, the cryopreserved/thawed or fresh brain tumor tissue was filtered through a 100 μm cell strainer. Each 50 mg of tissue was transfected with 1mL mcherry-FLuc Lentivirus at 1.5e7 vg/ml with 1μL polybrene for 4h at 37°C. After incubation, the brain tumor tissue was washed with PBS three times to remove the residual virus and reconstituted in PBS with a final volume of 150 μL. […] The viability of the patient tissue was measured by an AMI optical imaging system with the addition of 1.5 mg/mL luciferin underneath the culture insert. […]
as §2, with “DSS parameters 9–11 were determined based on the behavior of the tumor in response to the drug, as defined above.” left out

For assay [4], the system named is MMG-II patient tumor tissue (WHO grade II meningioma, multiple tumors). As to the kind of experiment: Drug screening of uncultured patient tumor tissue MMG-II on OBSCs. The assay is classed as cell-based. To be noted: Homo sapiens, dose required to kill 90% of the tumor. As to the method:
as §1, §5
as §2, with “DSS parameters 9–11 were determined based on the behavior of the tumor in response to the drug, as defined above.” left out

Assay [5] has as its system LBM patient tumor tissue (Stage III NSCLC adenocarcinoma). As to the kind of experiment: Drug screening of uncultured patient tumor tissue LBM on OBSCs. To be noted: Homo sapiens; for EC90: dose required to kill 90% of the tumor. It counts as cell-based. The method, then: as §1, §5
as §2, with “DSS parameters 9–11 were determined based on the behavior of the tumor in response to the drug, as defined above.” left out

Assay [6] relates to GBM-MG patient tumor tissue (GBM w/ WHO I meningioma). Put plainly: Drug screening of uncultured patient tumor tissue GBM-MG on OBSCs. The assay is classed as cell-based. The conditions noted are these: Homo sapiens, dose required to kill 90% of the tumor. As to the method:
as §1, §3, §4

Assay [7] has as its system ODDG patient tumor tissue (WHO grade III oligodendroglioma). As to the kind of experiment: Drug screening of uncultured patient tumor tissue ODDG on OBSCs. The assay is classed as cell-based. To be noted: Homo sapiens. As to the method:
as §1, §3, §4

The mark [8] stands for this setting: dose required to kill 50% of the tumor.

`Nc1ncn([C@@H]2O[C@H](CO)[C@@H](O)[C@H]2O)c(=O)n1` [Azacitidine]: in assay [1], the EC50 was more than 100 µM. For the same molecule, the EC90 in assay [1], in assay [2] and in assay [3] was more than 10 µM in each case.
For `Nc1ccn([C@@H]2O[C@H](CO)[C@@H](O)C2(F)F)c(=O)n1` [Gemcitabine], the EC90 in assay [4] is more than 10 µM.
Turning to `O=NN(CCCl)C(=O)NC1CCCCC1` [Lomustine], in assay [5], the 90% effect concentration (EC90) was more than 10 µM.
As to `Cn1nnc2c(C(N)=O)ncn2c1=O` [Temozolomide], the EC50 in assay [1], in assay [7] (setting [8]), in assay [3] (setting [8]) and in assay [5] (setting [8]) was more than 100 µM in each case. Moreover, the EC90 in assay [1], in assay [6], in assay [2], in assay [7] (dose required to kill 90% of the tumor), in assay [3] and in assay [5] was more than 10 µM each time. Also, the “DSS (drug sensitivity score)” value in assay [1] amounted to 26.
Regarding `CC(=O)Nc1cccc(-n2c(=O)n(C3CC3)c(=O)c3c(Nc4ccc(I)cc4F)n(C)c(=O)c(C)c32)c1` [Trametinib], in assay [1], the EC50 is more than 100 µM, the EC90 was more than 10 µM and the “DSS (drug sensitivity score)” value was determined as 16. Besides, the “Killing at highest dose” value in assay [1] (PGBM patient tissue on OBSCs, 72 h) is reported as “about one-third”. Moreover, in assay [4], the EC90 was more than 10 µM.
Molecule `CC[C@]1(O)C[C@H]2CN(CCc3c([nH]c4ccccc34)[C@@](C(=O)OC)(c3cc4c(cc3OC)N(C=O)[C@H]3[C@@](O)(C(=O)OC)[C@H](OC(C)=O)[C@]5(CC)C=CCN6CC[C@]43[C@@H]65)C2)C1` [Vincristine] returned a concentration for an effect of 90% (EC90) in assay [4] of more than 10 µM.

In general, EC50 refers to the concentration at which the effect is half-maximal. A low value points to higher potency in that assay. In general, EC90 refers to the concentration at which the effect reaches the 90% level. A lower EC90 goes with an effect from little substance.
